Measured values taken from patent publication US11739098B2 (BRISTOL-MYERS SQUIBB COMPANY, priority 2017, dated 2023).

Tests used:
Type in all cases: cell-based
human TLR7 = target: T1, human TLR7 (Homo sapiens, UniProt Q9NYK1); assay: TLR7 inhibition reporter assay (HEK-Blue cells, SEAP reporter, gardiquimod stimulation); settings: HEK-Blue cells overexpressing human TLR7, SEAP reporter, gardiquimod 7.5 μM
T1 construct: host or cells: HEK-Blue cells (HEK293-derived reporter line)
T1 sequence (Q9NYK1 27-1049): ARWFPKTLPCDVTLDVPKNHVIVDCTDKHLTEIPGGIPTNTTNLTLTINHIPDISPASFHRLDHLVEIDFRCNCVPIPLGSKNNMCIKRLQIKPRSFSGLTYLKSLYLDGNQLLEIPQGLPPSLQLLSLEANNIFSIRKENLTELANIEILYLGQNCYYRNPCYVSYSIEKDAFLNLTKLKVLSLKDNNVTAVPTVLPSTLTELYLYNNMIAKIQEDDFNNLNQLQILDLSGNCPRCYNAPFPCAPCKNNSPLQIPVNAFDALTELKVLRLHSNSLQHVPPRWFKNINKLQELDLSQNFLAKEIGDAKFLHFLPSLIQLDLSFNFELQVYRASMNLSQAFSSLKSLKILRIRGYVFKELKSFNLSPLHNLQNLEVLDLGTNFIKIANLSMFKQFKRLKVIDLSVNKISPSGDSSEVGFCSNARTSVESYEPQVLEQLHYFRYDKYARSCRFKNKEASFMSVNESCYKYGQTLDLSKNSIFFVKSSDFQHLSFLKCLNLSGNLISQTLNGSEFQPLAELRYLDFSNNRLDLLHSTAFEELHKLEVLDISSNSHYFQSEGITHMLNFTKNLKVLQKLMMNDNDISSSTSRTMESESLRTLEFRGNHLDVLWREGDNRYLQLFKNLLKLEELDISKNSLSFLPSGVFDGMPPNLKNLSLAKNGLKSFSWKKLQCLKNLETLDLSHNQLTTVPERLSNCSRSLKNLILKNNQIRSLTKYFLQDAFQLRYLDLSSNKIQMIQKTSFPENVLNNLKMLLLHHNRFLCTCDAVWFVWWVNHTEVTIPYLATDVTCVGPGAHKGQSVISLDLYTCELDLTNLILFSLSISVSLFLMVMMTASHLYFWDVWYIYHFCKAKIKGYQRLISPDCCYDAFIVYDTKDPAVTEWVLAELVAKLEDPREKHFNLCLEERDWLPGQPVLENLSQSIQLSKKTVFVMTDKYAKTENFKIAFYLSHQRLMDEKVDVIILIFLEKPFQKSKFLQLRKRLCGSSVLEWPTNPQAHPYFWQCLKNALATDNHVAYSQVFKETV
Outline: (§1)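 Percent inhibition of agonist-induced SEAP secretion in HEK-Blue cells after 22 h at 37 °C. Stimuli: 7.5 μM gardiquimod, 15.9 μM R848, 5 nM ODN2006 for TLR7, TLR8 and TLR9, added after 30 min compound exposure over a 0.05 nM–50 μM range.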

human TLR8 = target: T2, human TLR8 (Homo sapiens, UniProt Q9NR97); assay: TLR8 inhibition reporter assay (HEK-Blue cells, SEAP reporter, R848 stimulation); settings: HEK-Blue cells overexpressing human TLR8, SEAP reporter, R848 15.9 μM
T2 construct: host or cells: HEK-Blue cells (HEK293-derived reporter line)
T2 sequence (Q9NR97 27-1041): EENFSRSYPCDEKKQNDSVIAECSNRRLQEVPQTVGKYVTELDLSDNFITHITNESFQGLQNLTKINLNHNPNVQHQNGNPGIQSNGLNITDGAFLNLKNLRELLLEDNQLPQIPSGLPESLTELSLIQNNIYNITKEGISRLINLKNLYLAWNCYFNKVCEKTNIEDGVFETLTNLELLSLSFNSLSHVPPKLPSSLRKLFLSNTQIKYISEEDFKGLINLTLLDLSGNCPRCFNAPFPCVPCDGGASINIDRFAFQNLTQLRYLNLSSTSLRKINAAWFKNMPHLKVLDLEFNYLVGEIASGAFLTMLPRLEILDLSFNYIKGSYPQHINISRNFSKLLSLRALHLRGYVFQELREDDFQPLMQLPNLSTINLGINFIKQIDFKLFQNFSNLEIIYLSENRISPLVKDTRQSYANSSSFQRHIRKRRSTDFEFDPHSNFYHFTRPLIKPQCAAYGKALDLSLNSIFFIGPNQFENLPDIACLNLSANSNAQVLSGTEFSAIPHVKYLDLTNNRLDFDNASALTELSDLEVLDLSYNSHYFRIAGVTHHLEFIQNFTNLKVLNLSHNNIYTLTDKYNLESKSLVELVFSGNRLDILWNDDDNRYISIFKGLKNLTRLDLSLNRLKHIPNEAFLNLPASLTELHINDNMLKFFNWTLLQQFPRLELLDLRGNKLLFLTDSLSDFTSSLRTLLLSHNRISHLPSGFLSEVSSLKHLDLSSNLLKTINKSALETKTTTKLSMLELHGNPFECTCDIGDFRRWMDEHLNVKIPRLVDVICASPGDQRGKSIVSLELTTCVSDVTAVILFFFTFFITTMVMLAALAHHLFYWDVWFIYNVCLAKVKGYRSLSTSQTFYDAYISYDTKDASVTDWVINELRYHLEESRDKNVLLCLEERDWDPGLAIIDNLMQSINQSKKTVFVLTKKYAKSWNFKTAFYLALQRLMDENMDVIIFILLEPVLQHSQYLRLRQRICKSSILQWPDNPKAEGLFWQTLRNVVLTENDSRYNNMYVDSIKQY
Outline: as §1

human TLR9 = target: T3, human TLR9 (Homo sapiens, UniProt Q9NR96); assay: TLR9 inhibition reporter assay (HEK-Blue cells, SEAP reporter, ODN2006 stimulation); settings: HEK-Blue cells overexpressing human TLR9, SEAP reporter, ODN2006 5 nM
T3 construct: host or cells: HEK-Blue cells (HEK293-derived reporter line)
T3 sequence (Q9NR96 26-1032): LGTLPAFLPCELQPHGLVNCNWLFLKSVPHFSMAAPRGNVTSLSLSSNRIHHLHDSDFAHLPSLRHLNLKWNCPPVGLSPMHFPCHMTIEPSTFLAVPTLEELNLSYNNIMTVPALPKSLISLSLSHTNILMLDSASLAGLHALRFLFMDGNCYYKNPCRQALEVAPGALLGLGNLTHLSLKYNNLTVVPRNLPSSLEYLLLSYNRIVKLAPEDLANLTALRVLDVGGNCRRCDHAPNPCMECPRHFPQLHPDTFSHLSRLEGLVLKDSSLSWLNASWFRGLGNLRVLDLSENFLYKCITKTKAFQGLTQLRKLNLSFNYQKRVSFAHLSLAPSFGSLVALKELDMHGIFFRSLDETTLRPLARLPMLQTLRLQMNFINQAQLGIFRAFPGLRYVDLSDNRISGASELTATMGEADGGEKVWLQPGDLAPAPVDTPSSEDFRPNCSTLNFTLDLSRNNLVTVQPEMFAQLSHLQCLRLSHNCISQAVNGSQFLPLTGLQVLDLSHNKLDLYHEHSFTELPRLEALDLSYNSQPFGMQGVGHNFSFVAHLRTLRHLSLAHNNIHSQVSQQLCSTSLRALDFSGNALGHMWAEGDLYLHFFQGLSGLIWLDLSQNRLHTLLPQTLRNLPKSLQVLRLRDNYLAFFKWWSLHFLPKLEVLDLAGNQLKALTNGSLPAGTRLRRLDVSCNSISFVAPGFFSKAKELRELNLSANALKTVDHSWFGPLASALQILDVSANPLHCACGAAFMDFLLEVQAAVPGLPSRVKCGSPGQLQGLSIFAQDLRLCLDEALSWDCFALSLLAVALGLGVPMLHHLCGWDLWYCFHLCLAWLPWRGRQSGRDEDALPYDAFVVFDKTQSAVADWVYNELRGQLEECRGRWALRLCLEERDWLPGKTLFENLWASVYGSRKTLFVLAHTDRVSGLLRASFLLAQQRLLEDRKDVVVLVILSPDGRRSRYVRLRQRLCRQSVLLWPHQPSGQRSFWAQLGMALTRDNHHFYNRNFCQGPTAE
Outline: as §1

IC50 (human TLR7) [nM]	IC50 (human TLR8) [nM]	IC50 (human TLR9) [nM]	SMILES
100 to 1000	< 100	1000 to 50000	CCc1c(-c2ccnc3[nH]ccc23)[nH]c2ccc(C3CCN(Cc4cccn4C)CC3)cc12 [Example 871, 4-(3-ethyl-5-(1-((1-methyl-1H-pyrrol-2-yl)methyl)piperidin-4-yl)-1H-indol-2-yl)-1H-pyrrolo[2,3-b]pyridine]
< 100	< 100	1000 to 50000	Cc1cc(-c2[nH]c3ccc(C4CCNCC4)cc3c2C(C)C)c2[nH]ncc2n1 [Example 49, 7-(3-isopropyl-5-(piperidin-4-yl)-1H-indol-2-yl)-5-methyl-1H-pyrazolo[4,3-b]pyridine]
< 100	< 100	1000 to 50000	Cc1cc2nnnn2cc1-c1[nH]c2ccc(C3CCNCC3)cc2c1C(C)C [Example 76, 6-(3-isopropyl-5-(piperidin-4-yl)-1H-indol-2-yl)-7-methyltetrazolo[1,5-a]pyridine]
< 100	< 100	100 to 1000	Cc1ccnc2[nH]cc(-c3[nH]c4ccc(C5CCNCC5)cc4c3C(C)C)c12 [Example 36, 3-(3-isopropyl-5-(piperidin-4-yl)-1H-indol-2-yl)-4-methyl-1H-pyrrolo[2,3-b]pyridine]
< 100	< 100	1000 to 50000	COc1ncc(CN2CCC(c3ccc4[nH]c(-c5ccnc6[nH]ncc56)c(C(C)C)c4c3)CC2)cn1 [Example 909, 4-(3-isopropyl-5-(1-((2-methoxypyrimidin-5-yl)methyl)piperidin-4-yl)-1H-indol-2-yl)-1H-pyrazolo[3,4-b]pyridine]
1000 to 50000	1000 to 50000	1000 to 50000	Cc1cccc2cc(CN3CCC(c4ccc5[nH]c(-c6ccnc7[nH]ncc67)c(C(C)C)c5c4)CC3)c(Cl)nc12 [Example 922, 2-chloro-3-((4-(3-isopropyl-2-(1H-pyrazolo[3,4-b]pyridin-4-yl)-1H-indol-5-yl)piperidin-1-yl)methyl)-8-methylquinoline]
100 to 1000	< 100	1000 to 50000	CCCCc1nc(Cl)c(CN2CCC(c3ccc4[nH]c(-c5ccnc6[nH]ncc56)c(C(C)C)c4c3)CC2)[nH]1 [Example 896, 4-(5-(1-((2-butyl-4-chloro-1H-imidazol-5-yl)methyl)piperidin-4-yl)-3-isopropyl-1H-indol-2-yl)-1H-pyrazolo[3,4-b]pyridine]
< 100	100 to 1000	1000 to 50000	CC(C)c1c(-c2ccc3ncnn3n2)[nH]c2ccc(C3CCN(C4COC4)CC3)cc12 [Example 729, 6-(3-isopropyl-5-(1-(oxetan-3-yl)piperidin-4-yl)-1H-indol-2-yl)-[1,2,4]triazolo[1,5-b]pyridazine]
< 100	< 100	1000 to 50000	Cc1cc(-c2[nH]c3ccc(C4CCN(CC(C)(C)O)CC4)cc3c2C(C)C)c2ccccc2n1 [Example 752, 1-(4-(3-isopropyl-2-(2-methylquinolin-4-yl)-1H-indol-5-yl)piperidin-1-yl)-2-methylpropan-2-ol]
< 100	< 100	1000 to 50000	Cc1c(-c2[nH]c3ccc(C4CCNCC4)cc3c2C(C)C)nn2ncnc2c1C [Example 32, 6-(3-isopropyl-5-(piperidin-4-yl)-1H-indol-2-yl)-7,8-dimethyl-[1,2,4]triazolo[1,5-b]pyridazine]
< 100	< 100	< 100	CCc1c(-c2ccnc3[nH]ncc23)[nH]c2ccc(C3CCN(C4CCN(C(C)C)CC4)CC3)cc12 [Example 824, 4-(3-ethyl-5-(1′-isopropyl-[1,4′-bipiperidin]-4-yl)-1H-indol-2-yl)-1H-pyrazolo[3,4-b]pyridine]
< 100	1000 to 50000	1000 to 50000	Cc1nn2ccc(-c3[nH]c4ccc(C5CCN(CC(=O)N(C)C)CC5)cc4c3C(C)C)cc2c1F [Example 399, 2-(4-(2-(3-fluoro-2-methylpyrazolo[1,5-a]pyridin-5-yl)-3-isopropyl-1H-indol-5-yl)piperidin-1-yl)-N,N-dimethylacetamide]
< 100	< 100	1000 to 50000	Cc1c(-c2[nH]c3ccc(C4CCN(CC(=O)N(C)C)CC4)cc3c2C(C)C)nn2ncnc2c1C [Example 280, 2-(4-(2-(7,8-dimethyl-[1,2,4]triazolo[1,5-b]pyridazin-6-yl)-3-isopropyl-1H-indol-5-yl)piperidin-1-yl)-N,N-dimethylacetamide]
< 100	< 100	100 to 1000	CC(C)c1c(-c2ccc3nccn3c2)[nH]c2ccc(C3CCN(C(C)C)CC3)cc12 [Example 946, 6-(3-isopropyl-5-(1-isopropylpiperidin-4-yl)-1H-indol-2-yl)imidazo[1,2-a]pyridine]
100 to 1000	100 to 1000	100 to 1000	FC(F)Cc1c(-c2ccc3nccn3c2)[nH]c2ccc(C3CCN(Cc4c[nH]cn4)CC3)cc12 [Example 941, 6-(5-(1-((1H-imidazol-4-yl)methyl)piperidin-4-yl)-3-(2,2-difluoroethyl)-1H-indol-2-yl)imidazo[1,2-a]pyridine]
